# Starred links: 1 amine or outer side, 2 acyl side, 3 side chain; linkers in the order of their positions; H or OH if unused. Positions of bridges follow the written chain, without caps; N, C: chain ends. Non-standard residues stand in square brackets, D forms with d. Residues, ends and D or L forms follow the SMILES beside them. X2 = N=C(N)NCCC[C@@H](C(=O)[C@H](CCC(N)=O)N[*:1])C(=O)[*:2]; X1 = NCCCC[C@@H](C(=O)[C@H](CCCCN)N[*:1])C(=O)[*:2]
# Tests used:
# Neutrophil elastase = molecular target: T1, Neutrophil elastase (Homo sapiens, UniProt P08246); experiment: Inhibition of human leukocyte elastase by substrate hydrolysis based fluorescence assay
# T1 sequence (P08246 whole entry): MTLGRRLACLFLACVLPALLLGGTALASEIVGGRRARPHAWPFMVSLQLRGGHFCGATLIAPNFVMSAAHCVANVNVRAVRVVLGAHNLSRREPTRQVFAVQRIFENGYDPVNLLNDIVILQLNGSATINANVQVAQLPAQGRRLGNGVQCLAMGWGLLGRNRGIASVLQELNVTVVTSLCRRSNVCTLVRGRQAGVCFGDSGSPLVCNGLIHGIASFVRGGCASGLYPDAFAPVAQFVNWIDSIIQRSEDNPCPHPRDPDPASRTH
# [1] = Inhibition of trypsin by substrate hydrolysis based fluorescence assay
# [2] = Inhibition of tryptase by substrate hydrolysis based fluorescence assay
Ki (Neutrophil elastase; read-out: Ki) [nM],Ki [1] [nM],Ki [2] [nM],Ki (Neutrophil elastase),Compound
> 7500,> 0.105,> 50000,,"CC[C@H](C)[C@@H]1NC(=O)[C@@H]2CSSC[C@@H]3NC(=O)[C@H](C(C)C)NC(=O)CNC(=O)CNC(=O)[C@H](CC(=O)O)NC(=O)[C@H](CO)NC(=O)CNC(=O)[C@H](CO)NC(=O)CNC(=O)[C@@H]4CSSC[C@H](NC(=O)[C@H](CC(=O)O)NC(=O)[C@H](CO)NC(=O)[C@H](CC(=O)O)NC(=O)[C@H](CCCNC(=N)N)NC(=O)[C@H](CCCNC(=N)N)NC(=O)[C@H](CSSC[C@H](NC1=O)C(=O)N[C@@H](CCCNC(=N)N)C(=O)NCC(=O)N[C@@H](CC(N)=O)C(=O)NCC(=O)N[C@@H](Cc1ccc(O)cc1)C(=O)N4)NC(=O)[C@@H](CCCNC(=N)N)C(=O)[C@H](CCC(N)=O)NC(=O)[C@H](CC(C)C)NC(=O)[C@H]([C@@H](C)CC)NC(=O)[C@H](Cc1ccccc1)NC(=O)[C@@H]1CCCN1C3=O)C(=O)N1CCC[C@H]1C(=O)NCC(=O)N[C@@H](C)C(=O)N2 (cyclo(ACICRGNGYCGSGSDGGVCPFIL[X2]CRRDSDCPG); disulfide 2-19, 4-25, 10-31)"
,0.029,1600,Not Active,"CC[C@H](C)[C@@H]1NC(=O)[C@@H]2CSSC[C@@H]3NC(=O)[C@H](C(C)C)NC(=O)CNC(=O)CNC(=O)[C@H](CC(=O)O)NC(=O)[C@H](CO)NC(=O)CNC(=O)[C@H](CO)NC(=O)CNC(=O)[C@@H]4CSSC[C@H](NC(=O)[C@H](CC(=O)O)NC(=O)[C@H](CO)NC(=O)[C@H](CC(=O)O)NC(=O)[C@H](CCCNC(=N)N)NC(=O)[C@H](CCCNC(=N)N)NC(=O)[C@H](CSSC[C@H](NC1=O)C(=O)N[C@@H](CCCNC(=N)N)C(=O)NCC(=O)N[C@@H](CC(N)=O)C(=O)NCC(=O)N[C@@H](Cc1ccc(O)cc1)C(=O)N4)NC(=O)[C@@H](CCCNC(=N)N)C(=O)[C@H](CCC(N)=O)NC(=O)[C@H](CC(C)C)NC(=O)[C@H]([C@@H](C)CC)NC(=O)[C@H](CCCCN)NC(=O)[C@@H]1CCCN1C3=O)C(=O)N1CCC[C@H]1C(=O)NCC(=O)N[C@@H](C)C(=O)N2 (cyclo(ACICRGNGYCGSGSDGGVCPKIL[X2]CRRDSDCPG); disulfide 2-19, 4-25, 10-31)"
,> 0.106,> 50000,Not Active,"CC[C@H](C)[C@@H]1NC(=O)[C@@H]2CSSC[C@@H]3NC(=O)[C@H](C(C)C)NC(=O)CNC(=O)CNC(=O)[C@H](CC(=O)O)NC(=O)[C@H](CO)NC(=O)CNC(=O)[C@H](CO)NC(=O)CNC(=O)[C@@H]4CSSC[C@H](NC(=O)[C@H](CC(=O)O)NC(=O)[C@H](CO)NC(=O)[C@H](CC(=O)O)NC(=O)[C@H](CCCNC(=N)N)NC(=O)[C@H](CCCNC(=N)N)NC(=O)[C@H](CSSC[C@H](NC1=O)C(=O)N[C@@H](CCCNC(=N)N)C(=O)NCC(=O)N[C@@H](CC(N)=O)C(=O)NCC(=O)N[C@@H](Cc1ccc(O)cc1)C(=O)N4)NC(=O)[C@@H](CCCNC(=N)N)C(=O)[C@H](CCC(N)=O)NC(=O)[C@H](CC(C)C)NC(=O)[C@H]([C@@H](C)CC)NC(=O)[C@H](CCC(N)=O)NC(=O)[C@@H]1CCCN1C3=O)C(=O)N1CCC[C@H]1C(=O)NCC(=O)N[C@@H](C)C(=O)N2 (cyclo(ACICRGNGYCGSGSDGGVCPQIL[X2]CRRDSDCPG); disulfide 2-19, 4-25, 10-31)"

# Further lines, the compound ahead of its results:
Compound,Ki (Neutrophil elastase; read-out: Ki) [nM],Ki [1] [nM],Ki [2] [nM],Ki (Neutrophil elastase)
"CC[C@H](C)[C@@H]1NC(=O)[C@@H]2CSSC[C@@H]3NC(=O)[C@H](C(C)C)NC(=O)CNC(=O)CNC(=O)[C@H](CC(=O)O)NC(=O)[C@H](CO)NC(=O)CNC(=O)[C@H](CO)NC(=O)CNC(=O)[C@@H]4CSSC[C@H](NC(=O)[C@H](CC(=O)O)NC(=O)[C@H](CO)NC(=O)[C@H](CC(=O)O)NC(=O)[C@H](CCCNC(=N)N)NC(=O)[C@H](CCCNC(=N)N)NC(=O)[C@H](CSSC[C@H](NC1=O)C(=O)N[C@@H](CCCNC(=N)N)C(=O)NCC(=O)N[C@@H](CC(N)=O)C(=O)NCC(=O)N[C@@H](Cc1ccc(O)cc1)C(=O)N4)NC(=O)[C@@H](CCCCN)C(=O)[C@H](CCCCN)NC(=O)[C@H](CC(C)C)NC(=O)[C@H]([C@@H](C)CC)NC(=O)[C@H](CCCCN)NC(=O)[C@@H]1CCCN1C3=O)C(=O)N1CCC[C@H]1C(=O)NCC(=O)N[C@@H](C)C(=O)N2 (cyclo(ACICRGNGYCGSGSDGGVCPKIL[X1]CRRDSDCPG); disulfide 2-19, 4-25, 10-31)",,0.075,600,Not Active
"CC[C@H](C)[C@@H]1NC(=O)[C@@H]2CSSC[C@@H]3NC(=O)[C@H](C(C)C)NC(=O)CNC(=O)CNC(=O)[C@H](CC(=O)O)NC(=O)[C@H](CO)NC(=O)CNC(=O)[C@H](CO)NC(=O)CNC(=O)[C@@H]4CSSC[C@H](NC(=O)[C@H](CC(=O)O)NC(=O)[C@H](CO)NC(=O)[C@H](CC(=O)O)NC(=O)[C@H](CCCNC(=N)N)NC(=O)[C@H](CCCNC(=N)N)NC(=O)[C@H](CSSC[C@H](NC1=O)C(=O)N[C@@H](CCCNC(=N)N)C(=O)NCC(=O)N[C@@H](CC(N)=O)C(=O)NCC(=O)N[C@@H](Cc1ccc(O)cc1)C(=O)N4)NC(=O)[C@@H](CCCNC(=N)N)C(=O)[C@H](CCC(N)=O)NC(=O)[C@H](CC(C)C)NC(=O)[C@H]([C@@H](C)CC)NC(=O)[C@H](CCCNC(=N)N)NC(=O)[C@@H]1CCCN1C3=O)C(=O)N1CCC[C@H]1C(=O)NCC(=O)N[C@@H](C)C(=O)N2 (cyclo(ACICRGNGYCGSGSDGGVCPRIL[X2]CRRDSDCPG); disulfide 2-19, 4-25, 10-31)",,0.085,100,Not Active
"CC[C@H](C)[C@@H]1NC(=O)[C@@H]2CSSC[C@@H]3NC(=O)[C@H](C(C)C)NC(=O)CNC(=O)CNC(=O)[C@H](CC(=O)O)NC(=O)[C@H](CO)NC(=O)CNC(=O)[C@H](CO)NC(=O)CNC(=O)[C@@H]4CSSC[C@H](NC(=O)[C@H](CC(=O)O)NC(=O)[C@H](CO)NC(=O)[C@H](CC(=O)O)NC(=O)[C@H](CCCNC(=N)N)NC(=O)[C@H](CCCNC(=N)N)NC(=O)[C@H](CSSC[C@H](NC1=O)C(=O)N[C@@H](CCCNC(=N)N)C(=O)NCC(=O)N[C@@H](CC(N)=O)C(=O)NCC(=O)N[C@@H](Cc1ccc(O)cc1)C(=O)N4)NC(=O)[C@@H](CCCNC(=N)N)C(=O)[C@H](CCC(N)=O)NC(=O)[C@H](CC(C)C)NC(=O)[C@H]([C@@H](C)CC)NC(=O)[C@H](C(C)C)NC(=O)[C@@H]1CCCN1C3=O)C(=O)N1CCC[C@H]1C(=O)NCC(=O)N[C@@H](C)C(=O)N2 (cyclo(ACICRGNGYCGSGSDGGVCPVIL[X2]CRRDSDCPG); disulfide 2-19, 4-25, 10-31)",21,> 0.109,> 50000,

# Reference: ChEMBL document CHEMBL1154296, “Potent inhibitors of beta-tryptase and human leukocyte elastase based on the MCoTI-II scaffold” (J Med Chem, 2009)
